Assay results published in patent US6514994B2, “Levobupivacaine and its use” (Darwin Discovery, Ltd., priority 1997, dated 2003).

Legend:
[1] = system: conscious, previously instrumented, adult sheep; experiment: Electrocardiological effects of i.v. infusion in conscious sheep; type: in vivo; conditions: for deaths: 150, 150 and 200 mg infused over 3 min, ventricular tachycardia and fibrillation; for convulsive dose (inducing ventricular arrhythmias): sheep, 3 min
Procedure: The electrocardiological effects of bupivacaine and levobupivacaine were compared, in two groups of conscious, previously instrumented, adult sheep. Two cohorts of 7 animals were infused over 1 min with 6.25, 12.5, 18.75, 25 and 37.5 mg levobupivacaine and 12.5, 25 and 37.5 mg bupivacaine or over 3 min with 37.5, 50, 75, 100, 150 and 200 mg levobupivacaine and 37.5, 75, 100, 150 and 200 mg bupivacaine. […] Both drugs, at convulsive doses (75 mg bupivacaine, 100 mg levobupivacaine), induced ventricular arrhythmias; however, there was a higher threshold of toxicity with levobupivacaine. […] Inasmuch as levobupivacaine is reported to produce at least equivalent neural blockade to bupivacaine, it therefore offers a great margin of clinical safety.
FIGS. 1 and 2 of the accompanying drawings show baseline record of ECG (left), S-T segment change (centre) and multiform ventricular tachycardia (right) after i.v. infusion (40 ml, 3 min) of 100 mg bupivacaine and then of 200 mg levobupivacaine, in the same sheep.

[2] = system: Pentobarbital-Anesthetized Swine; experiment: Intracoronary (LAD) injection cardiotoxicity model, lethal dose and QRS prolongation; type: in vivo; conditions: for lethal dose, median / lethal dose, range: LAD injection, death by VF; for lethal dose higher than that of B: injected into LAD or RCA
Procedure: Reiz et al, Acta Anaesthesiol. Scand. (1989) 33:93-98, reports that in vivo cardiotoxicity of local anaesthetics can be evaluated without interference by central mechanisms in a highly reproducible model (Pentobarbital-Anesthetized Swine) where the drug is injected directly into a coronary artery. When local anesthetics are injected in the left anterior descending artery (LAD), death occurs consistently by ventricular fibrillation (VF). The aim of this study was to determine the lethal dose of each of the local anesthetics levobupivacaine (L), bupivacaine (B) and ropivacaine (R) as well as to compare their respective effects on the QRS interval of the precordial ECG.
A total of 27 animals were randomized to receive a dose response injection of L, B or R into the LAD. A blinded randomized protocol was used. All calculations and exclusions were made prior to disclosure of treatment. The doses of each agent were 0.375, 0.75, 1.5, 3.0, 4.0 mg etc., in increments of 1 mg till death occurred. Each dose was made up in a volume of 3 ml plus the dead space of the catheter (1.2 ml), injected over 10 sec. The time between doses was 5 min, or longer, if ECG, blood pressure or heart rate had not returned to pre-injection controls. A complete 12-lead ECG was recorded on optical disk for later analysis. Statistical analysis was by ANOVA, Dunnett's and the Mann-Whitney-U test. Power analysis was performed (0.85 to 1.00).
One animal died of myocardial infarction following acute embolization into the LAD. […] Of the animals injected into the LAD, 7 had received L, 7 B and 6 R. All deaths following LAD injection were by VF and deaths following RCA injection were by A-V dissociation. […] The difference between L and R at 50 msec prolongation was insignificant.

[3] = system: patients undergoing major abdominal surgery; experiment: Epidural anaesthesia in patients undergoing major abdominal surgery; type: in vivo, human; conditions: 0.75%
Procedure: This study compared the efficacy, safety and pharmacokinetics of 0.75% levobupivacaine with 0.75% bupivacaine in 58 patients undergoing major abdominal surgery under epidural anaesthesia. Although 0.75% bupivacaine is no longer used in some situations (obstetrics) and 0.5% concentrations are usually adequate for lower extremity surgery, 0.75% is preferential for abdominal surgery because of the enhancement of motor blockade. Onset of sensory anaesthesia to T10 (mean˜15 minutes), time to peak block height (T5, 25-30 min), and abdominal muscle relaxation (RAM score 3-5) were equivalent between the groups. Duration of total sensory anaesthesia was statistically longer with 0.75% levobupivacaine (levobupivacaine—551 min, racemic bupivacaine—506 min).

[4] = system: guinea-pig papillary muscle; experiment: Developed force and action potential parameters in papillary muscle; conditions: for effect on developed force and action potential parameters at steady-state: equimolar concentrations
Procedure: Contraction was measured in mycocytes and papillary muscle isolated from guinea-pig ventricle and pectinate muscle isolated from human right atrial appendage. Myocytes were isolated from guinea-pig left ventricle by an enzyme digestion procedure and placed in a chamber on the stage of an inverted microscope. Cells were superfused with Krebs-Henseleit buffer (KHB) at 30° C. and field stimulated at 1.0 Hz. Cell shortening was measured with a video camera and edge-etection system. Papillary and pectinate muscles were placed in KHB at 37° C. and field stimulated at 1.0 Hz. Isometric tension was recorded at maximum developed force (Lmax). Electrophysical parameters were recorded in papillary muscles superfused with KSB at 37° C. and stimulated at 1.0 Hz. Standard action potential parameters were recorded, i.e. maximum rate of rise of membrane potential (Vmax); action potential amplitude (APA); and action potential duration to 90% repolarisation (APD90). Developed force was measured by recording isometric tension in muscles stretched to 90% of Lmax.

[5] = system: adult patients, axillary brachial plexus; conditions: by comparison; cited from earlier work
[6] = system: myocytes isolated from guinea-pig left ventricle; experiment: Cell shortening (contraction) in isolated ventricular myocytes; type: cell-based; conditions: cardiac myocytes, P<0.05
Procedure: Contraction was measured in mycocytes and papillary muscle isolated from guinea-pig ventricle and pectinate muscle isolated from human right atrial appendage.
Myocytes were isolated from guinea-pig left ventricle by an enzyme digestion procedure and placed in a chamber on the stage of an inverted microscope. Cells were superfused with Krebs-Henseleit buffer (KHB) at 30° C. and field stimulated at 1.0 Hz. Cell shortening was measured with a video camera and edge-etection system. Papillary and pectinate muscles were placed in KHB at 37° C. and field stimulated at 1.0 Hz. Isometric tension was recorded at maximum developed force (Lmax).
The mean drug concentration producing a 50% reduction (CI-50) in cell shortening was calculated from cumulative dose-response curves. All data were analysed by an unpaired t-test (for control data comparison) or one-way ANOVA (for comparison between drug groups), assuming a Gaussian distribution.

[7] = system: adult patients, axillary brachial plexus; experiment: Axillary brachial plexus neural blockade in patients with distal upper extremity orthopaedic surgery; type: in vivo, human
Procedure: 20 adult patients scheduled for distal upper extremity orthopaedic surgical procedures with axillary brachial plexus neural blockade were studied. Patients received an axillaryblock using 50 ml of 0.5% levobupivacaine without epinephrine. Transarterial and/or nerve stimulator techniques were used to identify injection into the brachial plexus sheath. If after 10 min patients required supplemental local anaesthetic to produce anaesthesia in a single peripheral nerve distribution, an additional 10 ml of 0.5% levobupivacaine could be administered as a single peripheral nerve-block at the axilla or wrist. Patients were monitored for onset and duration of sensory and motor block using a 0-2 scale (0=no block, 1=partial block, 2=complete block) for each major nerve distribution (median, musculocutaneous, radius, ulnar). Time to onset of adequate anaesthesia for surgery, time to first request for post-operative analgesics, as well as any subjective or objective signs of local anaesthetic toxicity were also collected. Blood samples for PK analysis were drawn from 10 patients.

[8] = Plasma kinetics after administration (summary statement); type: in vivo
[9] = system: sensory block; conditions: 0.25%; cited from earlier work

CCCCN1CCCCC1C(=O)Nc1c(C)cccc1C (racemic) [bupivacaine]
deaths [1]: Three animals died within 10 min
potency in inducing an arrhythmia, relative to levobupivacaine ([1]; in vivo, iv): slightly more potent
potency in sustaining the arrhythmia, relative to levobupivacaine ([1]; in vivo, iv): more than three times more potent
convulsive dose (inducing ventricular arrhythmias) ([1]; in vivo, iv): 75 mg
lethal dose, median [2]: 5 mg
lethal dose, range [2]: 4 to 6 mg
duration of total sensory anaesthesia [3]: 506 min
onset of sensory anaesthesia to T10, mean [3]: ~15 min
effect on developed force and action potential parameters at steady-state [4]: No significant differences
recommended dose [5]: 2 mg/kg

CCCCN1CCCC[C@H]1C(=O)Nc1c(C)cccc1C [levobupivacaine, (S)-1-butyl-N-(2,6-dimethylphenyl)-2-piperidinecarboxamide]
deaths [1]: No animals died
ventricular arrhythmias induced, compared with the same doses of bupivacaine ([1]; in vivo): Significantly fewer, as well as less deleterious
convulsive dose (inducing ventricular arrhythmias) ([1]; in vivo, iv): 100 mg
lethal dose, median [2]: 8 mg
lethal dose, range [2]: 7 to 9 mg
difference in dose vs B to obtain the same degree of QRS prolongation ([2]; at 40 msec QRS prolongation): 25%
difference between L and R in dose for QRS prolongation ([2]; at 50 msec prolongation): insignificant
difference in dose vs B to obtain the same degree of QRS prolongation ([2]; at 90 msec QRS prolongation): 47%
lethal dose higher than that of B [2]: approximately 50%
duration of total sensory anaesthesia [3]: 551 min
onset of sensory anaesthesia to T10, mean [3]: ~15 min
recovery of contractility on washout with drug-free perfusate, vs bupivacaine [6]: significantly greater
effect on developed force and action potential parameters at steady-state [4]: No significant differences
recovery of contractility on washout with drug-free perfusate, vs bupivacaine ([4]; guinea-pig papillary muscle, P<0.05): significantly greater
duration of sensory/motor block in at least two nerve distributions, range ([7]; 0.5%, 50-60 ml): 14 to 24 h
mean duration of sensory/motor block in at least two nerve distributions ([7]; 0.5%, 50-60 ml): 20 h
sensory and motor blockade in all four peripheral nerve distributions immediately post-operatively ([7]; 0.5%, 50-60 ml): All patients had complete sensory and motor blockade
time to request for supplemental analgesics ([7]; 0.5%, 50-60 ml): 15 h
time to request for supplemental analgesics, range ([7]; 0.5%, 50-60 ml): 9 to 24 h
patients requiring general anaesthesia due to inadequate sensory/motor block at 30 min post-injection ([7]; 0.5%, 50-60 ml, 20 patients): 2 patients
patients with adequate onset of sensory/motor blockade for surgical anaesthesia within 30 min ([7]; 0.5%, 50-60 ml, 20 patients): 18 patients
signs or symptoms of local anaesthetic toxicity ([7]; 3-5 mg/kg): No patient demonstated any subjective or objective signs or symptoms of local anaesthetic toxicity
well tolerated doses for axillary block ([7]; axillary block, patients): 3 to 5 mg/kg
time to reach Tmax compared with the same dose of racemate ([8]; in vivo): takes longer to reach Tmax
plasma clearance rate compared with bupivacaine ([8]; within 0-4 hours post-administration): faster plasma clearance rate
sensory block efficacy and duration compared with bupivacaine [9]: comparable efficacy to bupivacaine

CCCN1CCCC[C@H]1C(=O)Nc1c(C)cccc1C [ropivacaine, reference compound]
lethal dose, median [2]: 8 mg
lethal dose, range [2]: 4 to 10 mg
QRS prolongation ([2]; at the 6 mg dose, 100% approximately 60 msec): ≤ 100%
lethal dose higher than that of B [2]: approximately 50%
effect on developed force and action potential parameters at steady-state [4]: No significant differences
